Results published in the supplement of paper PMC4862054.

test system: CAL-148; assay: normalised response (% of control), CellTox Green; higher = less cell death (100 = DMSO, 0 = benzethonium chloride kill control); conditions: incubation time: 72 h
Method in brief: (§1)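 Two readouts were taken after 72 h: CellTox Green fluorescence (485/520 nm) first, then CellTiter-Glo luminescence after 10 min at room temperature. Breast cancer cell lines had been seeded as 20 µl suspension into 384-well plates holding compound at 5 concentrations in 10-fold steps across a compound-specific 10,000-fold range. Each value is a normalised signal at a single concentration, with plates scaled to 0.1 % DMSO (100) and a positive kill control (0).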

For CCCC(CCC)C(=O)O [Valproic acid] (1000000 nM), the normalised response was 95.9%.

test system: MDA-MB-231; assay: as above; conditions: incubation time: 72 h
Method in brief: as §1

Point of comparison: C[C@@H]1CCN(C(=O)CC#N)C[C@@H]1N(C)c1ncnc2[nH]ccc12 [Tofacitinib] (5000 nM), normalised response 124%. Against it:
- COC(=O)C[C@](O)(CCCC(C)(C)O)C(=O)O[C@@H]1C(OC)=C[C@]23CCCN2CCc2cc4c(cc2[C@H]13)OCO4 [Omacetaxine] (10000 nM) — lower, 48.4%
- Cc1cc(C(C)Nc2ccccc2)c2nc(N3CCOCC3)cc(=O)n2c1 (stereo not given) [TGX-221] (10000 nM) — lower, 69%
- FC(F)c1nc2ccccc2n1-c1nc(N2CCOCC2)nc(N2CCOCC2)n1 [ZSTK474] (10000 nM) — lower, 97.6%
- COc1cc(Nc2ncc(F)c(Nc3ccc4c(n3)NC(=O)C(C)(C)O4)n2)cc(OC)c1OC [Tamatinib] (10000 nM) — lower, 108%
- CCCC(CCC)C(=O)O [Valproic acid] (1000000 nM) — lower, 98.7%

test system: BT-549; assay: as above; conditions: incubation time: 72 h
Method in brief: as §1

Point of comparison: COC(=O)C[C@](O)(CCCC(C)(C)O)C(=O)O[C@@H]1C(OC)=C[C@]23CCCN2CCc2cc4c(cc2[C@H]13)OCO4 [Omacetaxine] (10000 nM), normalised response 77%. Against it:
- Cc1cc(C(C)Nc2ccccc2)c2nc(N3CCOCC3)cc(=O)n2c1 (stereo not given) [TGX-221] (10000 nM) — higher, 84.2%
- FC(F)c1nc2ccccc2n1-c1nc(N2CCOCC2)nc(N2CCOCC2)n1 [ZSTK474] (10000 nM) — lower, 73.5%
- COc1cc(Nc2ncc(F)c(Nc3ccc4c(n3)NC(=O)C(C)(C)O4)n2)cc(OC)c1OC [Tamatinib] (10000 nM) — higher, 95%
- C[C@@H]1CCN(C(=O)CC#N)C[C@@H]1N(C)c1ncnc2[nH]ccc12 [Tofacitinib] (5000 nM) — higher, 120%
- CCCC(CCC)C(=O)O [Valproic acid] (1000000 nM) — higher, 111%

test system: CAL-120; assay: as above; conditions: incubation time: 72 h
Method in brief: as §1

Point of comparison: CCCC(CCC)C(=O)O [Valproic acid] (1000000 nM), normalised response 111%. Against it:
- COC(=O)C[C@](O)(CCCC(C)(C)O)C(=O)O[C@@H]1C(OC)=C[C@]23CCCN2CCc2cc4c(cc2[C@H]13)OCO4 [Omacetaxine] (10000 nM) — lower, 80.1%
- Cc1cc(C(C)Nc2ccccc2)c2nc(N3CCOCC3)cc(=O)n2c1 (stereo not given) [TGX-221] (10000 nM) — lower, 96.3%
- FC(F)c1nc2ccccc2n1-c1nc(N2CCOCC2)nc(N2CCOCC2)n1 [ZSTK474] (10000 nM) — lower, 98.6%
- COc1cc(Nc2ncc(F)c(Nc3ccc4c(n3)NC(=O)C(C)(C)O4)n2)cc(OC)c1OC [Tamatinib] (10000 nM) — lower, 100%
- C[C@@H]1CCN(C(=O)CC#N)C[C@@H]1N(C)c1ncnc2[nH]ccc12 [Tofacitinib] (5000 nM) — lower, 103%

test system: Hs578T; assay: as above; conditions: incubation time: 72 h
Method in brief: as §1

Point of comparison: COC(=O)C[C@](O)(CCCC(C)(C)O)C(=O)O[C@@H]1C(OC)=C[C@]23CCCN2CCc2cc4c(cc2[C@H]13)OCO4 [Omacetaxine] (10000 nM), normalised response 33.9%. Against it:
- Cc1cc(C(C)Nc2ccccc2)c2nc(N3CCOCC3)cc(=O)n2c1 (stereo not given) [TGX-221] (10000 nM) — lower, -33.5%
- FC(F)c1nc2ccccc2n1-c1nc(N2CCOCC2)nc(N2CCOCC2)n1 [ZSTK474] (10000 nM) — higher, 101%
- COc1cc(Nc2ncc(F)c(Nc3ccc4c(n3)NC(=O)C(C)(C)O4)n2)cc(OC)c1OC [Tamatinib] (10000 nM) — higher, 104%
- C[C@@H]1CCN(C(=O)CC#N)C[C@@H]1N(C)c1ncnc2[nH]ccc12 [Tofacitinib] (5000 nM) — higher, 126%
- CCCC(CCC)C(=O)O [Valproic acid] (1000000 nM) — higher, 129%

test system: CAL-51; assay: as above; conditions: incubation time: 72 h
Method in brief: as §1

Point of comparison: FC(F)c1nc2ccccc2n1-c1nc(N2CCOCC2)nc(N2CCOCC2)n1 [ZSTK474] (10000 nM), normalised response 70.5%. Against it:
- COC(=O)C[C@](O)(CCCC(C)(C)O)C(=O)O[C@@H]1C(OC)=C[C@]23CCCN2CCc2cc4c(cc2[C@H]13)OCO4 [Omacetaxine] (10000 nM) — higher, 94.3%
- Cc1cc(C(C)Nc2ccccc2)c2nc(N3CCOCC3)cc(=O)n2c1 (stereo not given) [TGX-221] (10000 nM) — higher, 93.5%
- COc1cc(Nc2ncc(F)c(Nc3ccc4c(n3)NC(=O)C(C)(C)O4)n2)cc(OC)c1OC [Tamatinib] (10000 nM) — higher, 83.7%
- C[C@@H]1CCN(C(=O)CC#N)C[C@@H]1N(C)c1ncnc2[nH]ccc12 [Tofacitinib] (5000 nM) — higher, 89.2%
- CCCC(CCC)C(=O)O [Valproic acid] (1000000 nM) — higher, 98.4%

test system: HCC1143; assay: as above; conditions: incubation time: 72 h
Method in brief: as §1

Point of comparison: Cc1cc(C(C)Nc2ccccc2)c2nc(N3CCOCC3)cc(=O)n2c1 (stereo not given) [TGX-221] (10000 nM), normalised response 76.9%. Against it:
- COC(=O)C[C@](O)(CCCC(C)(C)O)C(=O)O[C@@H]1C(OC)=C[C@]23CCCN2CCc2cc4c(cc2[C@H]13)OCO4 [Omacetaxine] (10000 nM) — lower, 74.8%
- FC(F)c1nc2ccccc2n1-c1nc(N2CCOCC2)nc(N2CCOCC2)n1 [ZSTK474] (10000 nM) — higher, 90.3%
- COc1cc(Nc2ncc(F)c(Nc3ccc4c(n3)NC(=O)C(C)(C)O4)n2)cc(OC)c1OC [Tamatinib] (10000 nM) — higher, 115%
- C[C@@H]1CCN(C(=O)CC#N)C[C@@H]1N(C)c1ncnc2[nH]ccc12 [Tofacitinib] (5000 nM) — higher, 117%
- CCCC(CCC)C(=O)O [Valproic acid] (1000000 nM) — higher, 111%

test system: MDA-MB-453; assay: as above; conditions: incubation time: 72 h
Method in brief: as §1

Point of comparison: FC(F)c1nc2ccccc2n1-c1nc(N2CCOCC2)nc(N2CCOCC2)n1 [ZSTK474] (10000 nM), normalised response 99.1%. Against it:
- COC(=O)C[C@](O)(CCCC(C)(C)O)C(=O)O[C@@H]1C(OC)=C[C@]23CCCN2CCc2cc4c(cc2[C@H]13)OCO4 [Omacetaxine] (10000 nM) — lower, 98.8%
- Cc1cc(C(C)Nc2ccccc2)c2nc(N3CCOCC3)cc(=O)n2c1 (stereo not given) [TGX-221] (10000 nM) — lower, 90.7%
- COc1cc(Nc2ncc(F)c(Nc3ccc4c(n3)NC(=O)C(C)(C)O4)n2)cc(OC)c1OC [Tamatinib] (10000 nM) — higher, 103%
- C[C@@H]1CCN(C(=O)CC#N)C[C@@H]1N(C)c1ncnc2[nH]ccc12 [Tofacitinib] (5000 nM) — higher, 110%
- CCCC(CCC)C(=O)O [Valproic acid] (1000000 nM) — higher, 102%

test system: BT-474; assay: as above; conditions: incubation time: 72 h
Method in brief: as §1

Point of comparison: Cc1cc(C(C)Nc2ccccc2)c2nc(N3CCOCC3)cc(=O)n2c1 (stereo not given) [TGX-221] (10000 nM), normalised response 92.8%. Against it:
- COC(=O)C[C@](O)(CCCC(C)(C)O)C(=O)O[C@@H]1C(OC)=C[C@]23CCCN2CCc2cc4c(cc2[C@H]13)OCO4 [Omacetaxine] (10000 nM) — lower, 75.2%
- FC(F)c1nc2ccccc2n1-c1nc(N2CCOCC2)nc(N2CCOCC2)n1 [ZSTK474] (10000 nM) — lower, 86.6%
- COc1cc(Nc2ncc(F)c(Nc3ccc4c(n3)NC(=O)C(C)(C)O4)n2)cc(OC)c1OC [Tamatinib] (10000 nM) — higher, 103%
- C[C@@H]1CCN(C(=O)CC#N)C[C@@H]1N(C)c1ncnc2[nH]ccc12 [Tofacitinib] (5000 nM) — higher, 102%
- CCCC(CCC)C(=O)O [Valproic acid] (1000000 nM) — higher, 105%

test system: MDA-MB-436; assay: as above; conditions: incubation time: 72 h
Method in brief: as §1

Point of comparison: C[C@@H]1CCN(C(=O)CC#N)C[C@@H]1N(C)c1ncnc2[nH]ccc12 [Tofacitinib] (5000 nM), normalised response 113%. Against it:
- COC(=O)C[C@](O)(CCCC(C)(C)O)C(=O)O[C@@H]1C(OC)=C[C@]23CCCN2CCc2cc4c(cc2[C@H]13)OCO4 [Omacetaxine] (10000 nM) — lower, 32.1%
- Cc1cc(C(C)Nc2ccccc2)c2nc(N3CCOCC3)cc(=O)n2c1 (stereo not given) [TGX-221] (10000 nM) — lower, 78.3%
- FC(F)c1nc2ccccc2n1-c1nc(N2CCOCC2)nc(N2CCOCC2)n1 [ZSTK474] (10000 nM) — lower, 84.2%
- COc1cc(Nc2ncc(F)c(Nc3ccc4c(n3)NC(=O)C(C)(C)O4)n2)cc(OC)c1OC [Tamatinib] (10000 nM) — lower, 94.9%
- CCCC(CCC)C(=O)O [Valproic acid] (1000000 nM) — lower, 106%
